{"source": "paper PMC9780888", "about": "“4-Isobutylmethcathinone—A Novel Synthetic Cathinone with High In Vitro Cytotoxicity and Strong Receptor Binding Preference of Enantiomers” (Pharmaceuticals, 2022)", "target": "T1, dopamine receptor DAR2 (Homo sapiens, UniProt P14416)", "T1 construct": "host or cells: HTLA (HEK 293-derived)", "T1 sequence (P14416 whole entry)": "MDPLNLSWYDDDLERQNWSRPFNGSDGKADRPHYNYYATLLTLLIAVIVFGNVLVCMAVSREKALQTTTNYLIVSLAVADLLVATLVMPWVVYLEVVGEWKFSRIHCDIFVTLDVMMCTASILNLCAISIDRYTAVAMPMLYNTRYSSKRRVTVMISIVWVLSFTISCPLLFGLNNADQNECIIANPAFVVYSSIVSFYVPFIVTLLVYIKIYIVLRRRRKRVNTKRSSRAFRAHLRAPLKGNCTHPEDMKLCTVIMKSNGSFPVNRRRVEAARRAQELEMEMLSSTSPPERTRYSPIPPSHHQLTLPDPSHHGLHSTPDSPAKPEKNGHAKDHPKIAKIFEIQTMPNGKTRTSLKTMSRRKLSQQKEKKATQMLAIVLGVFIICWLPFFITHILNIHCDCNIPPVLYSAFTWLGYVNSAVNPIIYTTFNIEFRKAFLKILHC", "assay": "PRESTO-Tango β-arrestin 2 recruitment assay, DAR2", "type": "cell-based", "details": "for RLU value relative to control (transfected but untreated HTLA cells): DAR2, 500 nM", "description": "However, binding to a specific receptor/transporter and, thus, the mechanism of action of a given cathinone always depends on the specific structure of the evaluated compound [37]. In this study, the binding activity of IBMcat and its enantiomers was verified by PRESTO-Tango (parallel receptor expression and screening via transcriptional output, with transcriptional activation following arrestin-2 translocation) assay using the HTLA cell line stably producing β-arrestin-2 in a fusion with TEV and luciferase production driven by tTA. For this purpose, the HTLA cells were transiently transfected with plasmid DNA encoding the dopamine receptors type 1-4 (DAR1-4), which also contain the TEV protease cleavage site followed by tTA at the 3’-end (DAR1-Tango, DAR2-Tango, DAR3-Tango, DAR4-Tango). In the case of the receptor activation by a ligand, in transfected cells, the receptor is desensitized by β-arrestin fused to TEV protease. This brings the TEV protease close to the site that specifically cleaves and, thus, the transcription factor can be cleaved. The transcription factor then translocates to the cell nucleus, in which it triggers the transcription of the target gene for luciferase production which can be determined by the light emitted from luciferin conversion to oxyluciferin. Here, the pronounced luminescence was recorded for all DAR1-4 types in HTLA cells treated with IBMCat and its enantiomers (Figure 8).\nThe HTLA cell line was used for the PRESTO-Tango β-arrestin recruitment assay. […]\nThe transfected HTLA cells were incubated for 24 h, and then 1 × 10^4 cells were seeded per well of a white 96-well clear bottom plate (Brand, Germany) in 40 μL of DMEM with 1% charcoal-stripped FBS (Thermo Fisher Scientific, USA). […] After 5 min., the luminescence was measured using a multi-mode microplate reader SpectraMax iD5 (Molecular Devices, San Jose, CA, USA) measuring the entire wavelength spectrum. All samples were measured in quadruplicates. The data were evaluated by Prism 7 software (GraphPad, San Jose, CA, USA).", "note": "Structures can show the parent of a compound that is named as a salt."}
{"smiles": "CNC(C)C(=O)c1ccc(CC(C)C)cc1.Cl", "note": "(stereo not drawn) [IBMcat, 4-isobutylmethcathinone hydrochloride]", "values": [{"measurement": "RLU value relative to control (transfected but untreated HTLA cells)", "result": "approximately 5 fold"}]}
{"smiles": "CN[C@H](C)C(=O)c1ccc(CC(C)C)cc1", "note": "[R-IBMCat]", "values": [{"measurement": "effect on DAR2-expressing cells", "setting": "0-500 nM", "result": "no effect"}]}
{"smiles": "CN[C@@H](C)C(=O)c1ccc(CC(C)C)cc1", "note": "[S-IBMCat, (S)-4-isobutylmethcathinone hydrochloride]", "values": [{"measurement": "RLU value relative to control (transfected but untreated HTLA cells)", "result": "~3", "unit": "fold"}]}
